Patent publication US20240342156A1, “METHODS FOR TREATING PAIN” (Xenon Pharmaceuticals Inc., priority 2019, published 2024)

Experiments:
[1] = system: rat spinal nerve ligation (SNL)/Chung model of neuropathic pain; assay: Spinal nerve ligation (SNL)/Chung model, tactile allodynia, electronic von Frey test on lesioned paw; type: in vivo
Experimental: (§1) Objective: The efficacy of Compound A was assessed using the rat spinal nerve ligation (SNL)/Chung model of neuropathic pain. The SNL model in rats was developed as described previously (Chung J M, Kim H K, Chung K. “Segmental spinal nerve ligation model of neuropathic pain.” Methods Mol. Med. 99 (2004) 35-45).
(§2) Study Design. Briefly, on Day 0, von Frey and cold plate tests were used for baseline measurements of tactile and cold allodynia respectively. Post-baseline measurements, rats (171-209 g male Sprague Dawley) were anesthetized and an incision at the L4-S2 level was performed to expose the left L5 nerve. A ligature was tied tightly around the L5 nerve (Chung et al.; R. Dost et al., “The anti-hyperalgesic activity of Retigabine is mediated by KCNQ potassium channel activation.” Naunyn-Schmiedeberg's Arch. Pharmacol. 369 (2004) 382-390; Gordon Blackburn-Munro et al., “The anticonvulsant retigabine attenuates nociceptive behaviors in rat models of persistent and neuropathic pain.” Eur. J Pharmacol. 460 (2003) 109-116; and Wu Y J et al., “Discovery of (S,E)-3-(2-fluorophenyl)-N-(1-(3-(pyridin-3-yloxy)phenyl)ethyl)-acrylamide as a potent and efficacious KCNQ2 (Kv7.2) opener for the treatment of neuropathic pain.” Bioorg Med. Chem. Lett. 23 (2013) 6188-91). The wound was then sutured and the rats were allowed to recover. On Day 13, post-surgery baselines for tactile and cold allodynia were measured to verify neuropathic pain. Animals were assigned to treatment groups based on the post-surgery baseline score.
(§3) Dosing: For efficacy testing, Compound A was dosed orally once a day for 5 consecutive days from Day 14-18.
Rats were placed under an inverted acrylic plastic box on a grid floor. The tip of an electronic von Frey probe was then applied with increasing force to the surgery hind paw and the force required to induce paw-withdrawal was automatically recorded. The procedure was carried out 3 times and the mean paw withdrawal force was calculated. The experimenter was double blinded to treatment.

[2] = system: rat spinal nerve ligation (SNL)/Chung model of neuropathic pain; assay: Spinal nerve ligation (SNL)/Chung model, thermal allodynia, cold plate test on lesioned paw; type: in vivo
Experimental: as §1
Study Design. Briefly, on Day 0, von Frey and cold plate tests were used for baseline measurements of tactile and cold allodynia respectively. Post-baseline measurements, rats (171-209 g male Sprague Dawley) were anesthetized and an incision at the L4-S2 level was performed to expose the left L5 nerve. […] The wound was then sutured and the rats were allowed to recover. On Day 13, post-surgery baselines for tactile and cold allodynia were measured to verify neuropathic pain. Animals were assigned to treatment groups based on the post-surgery baseline score.
as §3
The cold plate apparatus was maintained at 4±1° C. and was surrounded by an acrylic glass enclosure. Rats were placed on the plate for a period of 5 minutes. The latency to 1st paw-withdrawal, total number of paw withdrawals, and total duration of withdrawal responses were recorded for the surgery hind paw.

[3] = Body weight of SNL rats over the duration of testing; type: in vivo, rat
Experimental: as §2, §3

[4] = Day 14, test 1 h after administration, 128 mg/kg p.o.
[5] = Day 18, test 1 h after administration, 128 mg/kg p.o. once on Day 14 and on Day 18
[6] = Day 18 at 2 h, 20 mg/kg p.o. once daily Day 14-18

For `CN1CC[C@]23c4c5ccc(O)c4O[C@H]2[C@@H](O)C=C[C@H]3[C@H]1C5.Cl` [Morphine, Morphine hydrochloride, reference compound], the “Force inducing paw-withdrawal (g), Delta from baseline compared with Vehicle (p.o.), Δ” value [1, 4] was “+27.4 g”, the “Force inducing paw-withdrawal (g), Delta from baseline, Mean ± s.e.m.” value [1, 4] was “+27.7 ± 5.6 g” and the “Force inducing paw-withdrawal (g), Mean ± s.e.m.” value [1, 4] was 50.6 ± 5.0 g. For the same compound, the “Force inducing paw-withdrawal (g), Delta from baseline compared with Vehicle (p.o.), Δ” value [1, 5] was “+24.3 g”, the “Force inducing paw-withdrawal (g), Delta from baseline, Mean ± s.e.m.” value [1, 5] was “+27.1 ± 4.6 g” and the “Force inducing paw-withdrawal (g), Mean ± s.e.m.” value [1, 5] was 50.0 ± 4.5 g. For the same compound, the “Latency to first paw-withdrawal (s), Mean ± s.e.m.” value (from here on “Latency to first paw-withdrawal (s)”) [2, 4] was 201.3 ± 35.8 s, the “Latency to first paw-withdrawal, compared with Vehicle (p.o.), Δ%” value (from here on “Latency to first paw-withdrawal … (p.o.), Δ%”) [2, 4] was “+55%” and the “Number of withdrawal responses, Mean ± s.e.m.” value (“Number … Mean ± s.e.m.” for short) [2, 4] was 7.9 ± 2.8. The “Number of withdrawal responses, compared with Vehicle (p.o.), Δ%” value (“Number of withdrawal responses … (p.o.), Δ%” for short) [2, 4] was −22%, the “Latency to first paw-withdrawal (s)” value [2, 5] was 235.8 ± 33.2 s and the “Latency to first paw-withdrawal … (p.o.), Δ%” value [2, 5] was “+150%”. For the same compound, the “Number … Mean ± s.e.m.” value [2, 5] was 4.6 ± 2.8, the “Number of withdrawal responses … (p.o.), Δ%” value [2, 5] was −58% and the “Body weight (g) (mean ± s.e.m.)” value ([3]; Day 14, 128 mg/kg p.o. once on Day 14 and on Day 18) was 295.9 ± 4.6 g. For the same compound, the “Body weight (g) (mean ± s.e.m.)” value ([3]; Day 15, 128 mg/kg p.o. once on Day 14 and on Day 18) was 312.8 ± 5.5 g, the “Body weight (g) (mean ± s.e.m.)” value ([3]; Day 16, 128 mg/kg p.o. once on Day 14 and on Day 18) was 302.0 ± 5.4 g and the “Body weight (g) (mean ± s.e.m.)” value ([3]; Day 17, 128 mg/kg p.o. once on Day 14 and on Day 18) was 298.9 ± 5.4 g. The “Body weight (g) (mean ± s.e.m.)” value ([3]; Day 18, 128 mg/kg p.o. once on Day 14 and on Day 18) was 306.7 ± 5.2 g.
With `CCOC(=O)Nc1ccc(NCc2ccc(F)cc2)cc1N` [Retigabine, reference compound] the “Force inducing paw-withdrawal (g), Delta from baseline compared with Vehicle (p.o.), Δ” value ([1]; Day 14 at 2 h, 20 mg/kg p.o.) was “+4.0 g”, the “Force inducing paw-withdrawal (g), Delta from baseline, Mean ± s.e.m.” value ([1]; Day 14 at 2 h, 20 mg/kg p.o.) was “+4.0 ± 2.2 g” and the “Force inducing paw-withdrawal (g), Mean ± s.e.m.” value ([1]; Day 14 at 2 h, 20 mg/kg p.o.) was 26.5 ± 2.5 g. The “Force inducing paw-withdrawal (g), Delta from baseline compared with Vehicle (p.o.), Δ” value [1, 6] was “+6.4 g”, the “Force inducing paw-withdrawal (g), Delta from baseline, Mean ± s.e.m.” value [1, 6] was “+9.2 ± 2.1 g” and the “Force inducing paw-withdrawal (g), Mean ± s.e.m.” value [1, 6] was 31.8 ± 2.2 g. The “Latency to first paw-withdrawal (s)” value ([2]; Day 14 at 2 h, 20 mg/kg p.o.) was 272.7 ± 20.1 s, the “Latency to first paw-withdrawal … (p.o.), Δ%” value ([2]; Day 14 at 2 h, 20 mg/kg p.o.) was “+110%” and the “Number … Mean ± s.e.m.” value ([2]; Day 14 at 2 h, 20 mg/kg p.o.) was 1.5 ± 1.3. The “Number of withdrawal responses … (p.o.), Δ%” value ([2]; Day 14 at 2 h, 20 mg/kg p.o.) was −85%, the “Total duration of withdrawal responses (s), Mean ± s.e.m.” value ([2]; Day 14 at 2 h, 20 mg/kg p.o.) was 0.3 ± 0.3 s and the “Total duration of withdrawal responses, compared with Vehicle (p.o.), Δ%” value ([2]; Day 14 at 2 h, 20 mg/kg p.o.) was −86%. The “Latency to first paw-withdrawal (s)” value [2, 6] was 209.3 ± 36.1 s, the “Latency to first paw-withdrawal … (p.o.), Δ%” value [2, 6] was “+122%” and the “Number … Mean ± s.e.m.” value [2, 6] was 3.4 ± 1.3. For the same compound, the “Number of withdrawal responses … (p.o.), Δ%” value [2, 6] was −69%, the “Total duration of withdrawal responses (s), Mean ± s.e.m.” value [2, 6] was 27.3 ± 23.5 s and the “Total duration of withdrawal responses, compared with Vehicle (p.o.), Δ%” value [2, 6] was “+153%”. For the same compound, the “Body weight (g) (mean ± s.e.m.)” value ([3]; Day 14, 20 mg/kg p.o. once daily Day 14-18) was 300.8 ± 4.8 g, the “Body weight (g) (mean ± s.e.m.)” value ([3]; Day 15, 20 mg/kg p.o. once daily Day 14-18) was 312.6 ± 5.1 g and the “Body weight (g) (mean ± s.e.m.)” value ([3]; Day 16, 20 mg/kg p.o. once daily Day 14-18) was 321.1 ± 5.2 g. The “Body weight (g) (mean ± s.e.m.)” value ([3]; Day 17, 20 mg/kg p.o. once daily Day 14-18) was 330.6 ± 5.3 g and the “Body weight (g) (mean ± s.e.m.)” value ([3]; Day 18, 20 mg/kg p.o. once daily Day 14-18) was 336.8 ± 5.7 g.
